Tests used:
[1] = system: women; test: Skin elasticity-improving effect of formulated creams (Cutometer MPA580); assay type: in vivo; details: cream around the eyes twice a day for 12 weeks; Cutometer MPA580 R8 value
Procedure: A skin elasticity-improving effect of the cosmetic composition including each of the samples obtained in Examples and Comparative Examples was evaluated. The respective samples were formulated into creams having the same compositions. In this case, only the samples of Examples 1 to 9 and Comparative Examples 1 to 12 differed. Healthy women over the age of 20 years old (with an average age of 37 years old) were divided into groups, and instructed to apply the formulated creams of Examples and Comparative Examples onto their faces under conditions of a temperature of 24 to 26° C. and a humidity of 75%. The formulated creams were applied around the eyes twice (morning and evening) a day for 12 weeks, and the skin elasticity was measured using a skin elastometer (Cutometer MPA580 commercially available from Courage+Khazaka Electronic GmbH, Germany). The test results were expressed as R8 (R8 (week 12)−R8 (week 0)) values of the Cutometer MPA580, and the R8 values represented properties such as skin viscoelasticity.

[2] = Free radical scavenging activity by ABTS assay; assay type: biochemical; details: measured at 732 nm; lower SC50 = higher activity
Procedure: Each of the extracts of Examples and Comparative Examples was suspended in purified water to evaluate a free radical scavenging activity of each of the extracts. […] Vitamin C was used as the control, and a 50% scavenging concentration (SC50) of the ABTS radicals was measured. Then, the measured SC50 of the ABTS radicals was compared to that of the control (Table 4). In particular, the free radical scavenging activities at different concentrations were measured in the case of Example 1, and compared to that of the control (FIG. 1).

[3] = Free radical scavenging activity by DPPH assay; assay type: biochemical; details: optical density at 540 nm; lower SC50 = higher activity
Procedure: Each of the extracts of Examples and Comparative Examples was suspended in purified water to evaluate a free radical scavenging activity of each of the extracts. A DPPH assay is a method of measuring an optical density at 540 nm to measure a level of discoloration caused by an inhibitor scavenging stable 2,2-diphenyl-1-picrylhydrazyl (DPPH) radicals. Vitamin C was used as the control, and a 50% scavenging concentration (SC50) of the DPPH radicals was measured. Then, the measured SC50 of the DPPH radicals was compared to that of the control (Table 3). In particular, the free radical scavenging activity of the sample of Example 1 at different concentrations was measured, and compared to that of the control (FIG. 1).

[4] = system: B16F10 cells; test: Melanin content assay (amount of produced melanin); assay type: cell-based; details: α-MSH stimulated, sample 200 μg/mL (50 mg/L), 48 hours, arbutin 200 μg/mL as control
Procedure: To check a whitening effect of the samples of Examples and Comparative Examples, an ability of the samples of Examples and Comparative Examples to inhibit melanogenesis was evaluated using a melanin content assay (Eisinger M et al., 1982; Siegrist W and Eberle A N, 1986). Each of the samples of Examples and Comparative Examples was suspended at a concentration of 50 mg/L in purified water, and an amount of produced melanin was determined.
B16F10 cells were seeded at a concentration of 1.5×10^5 cells/well in a 60 mm culture dish, and then cultured for 24 hours. A melanogenesis-stimulating hormone, α-MSH (Sigma-Aldrich, St. Louis, Mo., USA), and each of the samples of Examples and Comparative Examples were added to a medium at a concentration of 200 μg/mL (Virador V M et al., 1999).
After 48 hours had elapsed, the cells were harvested, and then washed once with PBS. Thereafter, 120 μL of a 1 N NaOH lysis buffer was added thereto, and the resulting mixture was heated at 95° C. for 10 minutes to lyse the cells. The optical density at a wavelength of 450 nm was measured using a microplate reader. Here, arbutin at a concentration of 200 μg/mL was used as the control (Table 6).
In particular, the melanin production rates at different concentrations were measured in the case of Example 1 (FIG. 1).

Row | Structure (SMILES) | Skin elasticity-improving effect, R8 (week 12) − R8 (week 0) [1] | 50% Scavenging Concentration (SC50) of ABTS Radicals [2] | 50% Scavenging Concentration (SC50) of DPPH Radicals [3] | Melanin production rate [4]
1 | O=C1O[C@H]([C@@H](O)CO)C(O)=C1O [Control (Vitamin C), Vitamin C] | 0.92 | 8.7 µg/mL | 8.7 µg/mL | –
2 | OC[C@H]1O[C@@H](Oc2ccc(O)cc2)[C@H](O)[C@@H](O)[C@@H]1O [Positive control, arbutin] | – | – | – | 38.2%

Reference: patent US10434057B2, “Cosmetic composition comprising osmanthus asiaticus extract and clematis apiifolia extract” (AMI COSMETIC CO., LTD., priority 2017, dated 2019)
